# Laboratory results: US7160684B2, “Methods of selecting compounds for modulation of bladder function” (Wyeth, priority 2000, dated 2007)
# Columns and labels:
# [1] = tested on: cultured human bladder smooth muscle cells; test: Voltage clamp recording of outward current, human cells; format: cell-based; details: human bladder smooth muscle cells, FIG. 3d
# Experimental: (§1) Single cell recordings are performed with a List-Medical EPC-7 patch clamp amplifier (Adams & List Assoc., Westbury, N.Y.). Pipette electrodes had tip resistances of 2–4 MΩ and are filled with the following composition (mM): KCl (126.0), MgCl2.6H2O (4.5), ATP Mg salt (4.0), GTP tris salt (0.3), creatine PO4 (14.0), D-glucose (9.0), EGTA (9.0), HEPES (9.0). The pH is adjusted to 7.4 with KOH. Signals are acquired (3 kHz high frequency cut-off, 12 bit resolution) using a 586-based personal computer.
# Whole cell recordings are made using broken patch access. Currents are evoked using either voltage steps (Vh=−50; Vt=−60 to 40 mV) or voltage ramps (−60 to 40 mV at 3.3 mV/sec.). The exact voltage clamp protocols are well known in the art. After stability is achieved control currents are recorded. Next, test compound is added to the superfusate. Currents are recorded for 5 to 10 minutes or until compound effects reach steady state. This is followed either by washout or addition of antagonists (linopirdine, XE-991) to the superfusate.
# Cellular electrophysiological studies were conducted using both voltage and current clamp techniques (Hammill, O., P., Marty, A., Neher, E., Sakmann, B. & Sigworth, F. J.: Improved patch-clamp techniques for high-resolution current recordings from cells and cell-free membrane patches. Pflugers Arch 391: 85–100 (1981)) from Sprague-Dawley rat (200–400 grams) bladders as previously described, (Wojdan, A., Freeden, C., Woods, M., Oshiro, G., Spinelli, W. et al., J. Pharmacol Exp Therap 289: 1410–1418 (1999)) and from a human bladder, primary cell culture (Colnetics, San Diego, Calif.). In rat cells, the average, control resting membrane potential (RMP) was −29.0±4.5 mV. […]
# Rat bladder strips were isolated and prepared as previously described (Wojdan, A., Freeden, C., Woods, M., Oshiro, G., Spinelli, W. et al., J Pharmacol ExpTherap 289:1410–1418 (1999)). […] Message for KCNQ subunits was probed using quantitative rtPCR on an ABI PRISM 7700 Sequence Detection System (TAQMAN). […]
# [2] = tested on: isolated rat bladder smooth muscle cell; test: Voltage clamp recording of outward current, rat cells; format: cell-based; details: test potentials between −50 and 80 mV; n=5
# Source text: Rat detrusor cells are isolated in a manner previously described for guinea-pig detrusor (Sheldon J H, Norton N W and Argentieri T M (1997) Inhibition of guinea pig detrusor contraction by NS-1619 is associated with activation of BKCa and inhibition of calcium currents. J Pharmacol Exp Thera 283(3): 1193–1200). Male Sprague-Dawley rats (Charles River, Wilmington, Mass.; 200–400 grams) are euthanized by CO2 inhalation and exsanguination. Their urinary bladders are rapidly removed and placed in 37° C. physiological solution with the following composition (mM): Na glutamate (80.0), NaCl (54.7), KCl (5.0), NaHCO3 (25.0), MgCl2.2H2O (2.5), D-glucose (11.8) and CaCl2 (0.2) gassed with O2—CO2, 95%/5% for a final pH of 7.4. The dome of the bladder is isolated from the trigone region and the mucosa is removed. This tissue is then cut into 2–3 mm wide strips and placed into fresh buffer for 1 hour. Tissues are then transferred into 10 ml of an isolation buffer containing the above composition plus collagenase type VIII (1.0 mg/ml) and pronase (0.25 mg/ml). After 10 minutes the isolation buffer is replaced with fresh isolation buffer for an additional 10 min. The tissue is then washed 3 times in fresh collagenase and pronase free solution and stored at room temperature until studied. Cells for study are prepared by triturating 1–2 pieces of detrusor tissue in 2 ml of fresh isolation buffer for 5 minutes with a polished Pasteur pipette, (tip diameter ˜1.5 mm) attached to a modified Harvard Respirator pump (Harvard Apparatus, Southnatic, Mass.) at a rate of 20×/min. with an approximate volume of 5 ml. Cells are then placed on a microscope stage in a temperature regulated tissue bath at 32.5° C. and continually superfused with PSS.
# as §1
# Whole cell recordings are made using broken patch access. Currents are evoked using either voltage steps (Vh=−50; Vt=−60 to 40 mV) or voltage ramps (−60 to 40 mV at 3.3 mV/sec.). The exact voltage clamp protocols are well known in the art. After stability is achieved control currents are recorded. Next, test compound is added to the superfusate. Currents are recorded for 5 to 10 minutes or until compound effects reach steady state. This is followed either by washout or addition of antagonists (linopirdine, XE-991) to the superfusate. […]
smiles,measurement,setting,value
"CCOC(=O)Nc1ccc(NCc2ccc(F)cc2)cc1N [retigabine, N-[2-amino-4-(4-fluorobenzylamino)-phenyl]carbamic acid ethyl ester]",effect on outward current,[1],increased outward currents
same,effect on outward current,[1]; listed as Retigabine,increased an outward current
same,effect on outward current,[2],increase in outward current
